The source of these data is PMC6708471 (Cell calcium, 2019).

Molecules are shown by their SMILES.

In test [1] the target is T1, calmodulin (CaM) (Homo sapiens, UniProt P0DP25). The experiment in a line: X-ray crystal structure. It is filed as biochemical.
Test [2] concerns the target T1, calmodulin (CaM). The experiment in a line: […]-1H HSQC NMR titration. In kind it is binding.

The EC50 is the concentration giving half of the maximal effect. In test [1], `COc1ccc(S(=O)(=O)N(CCO)c2ccccc2CN(C)C/C=C/c2ccc(Cl)cc2)cc1` [KN93] gave an EC50 of 5.1 ± 1.4 µM.
On to `COc1ccc(S(=O)(=O)Nc2ccccc2CN(C)C/C=C/c2ccc(Cl)cc2)cc1` [KN92], for which, in test [2], the “15N-1H HSQC NMR titration (intermediate exchange, modest affinity)” value was “We found that KN92 also affects the CaM NMR spectrum as many of the cross peaks disappear”.
